Series [1] in a line: Flow rheometry test of PCL-PVAc-PEG/Vitamin E composites. In kind it is physicochemical. To be noted: flow mode, 20±1° C., shear stress 0.60 to 59.68 Pa. How it is done: Rheological Characterization. […] The viscoelastic properties of the composites were evaluated by measuring their shear rate under an applied shear stress. The viscous response, or the loss modulus, is the loss of the rigid structure of the system as a result of the applied stress over strain (G″). The recovery of the polymeric dispersions when lifting the applied stress is known as the elastic (G′) or storage modulus. Tangent of the phase angle (tan δ) is the ratio of the viscous property of the dispersion (G″) to its elastic property (G′). Tan δ is a measure of the relative contribution of the viscous component to the solid characteristics of the material. Materials behave increasingly like a liquid as the tan δ value increases above 1, whereas they behave increasingly like a gel as the tan δ value decreases below 1 [13].
The characterization of the rheological properties of vitamin E and PCL-PVAc-PEG/Vitamin E composites was carried out with an Advanced AR 2000 controlled stress/controlled rate rheometer (TA Instruments, New Castle, Del., USA) with a 2o, 40 mm cone-plate geometry and a 61 μm gap between the plates. Approximately 0.6 mL of each sample was carefully placed on the lower plate. […]
Flow Rheometry Test. The flow behavior and complex viscosity (η) of the PCL-PVAc-PEG/Vitamin E composites were measured in flow mode at 20±1° C. under an applied shear stress from 0.60 to 59.68 Pa. […]

Series [2] can be described thus: Texture analysis of PCL-PVAc-PEG/Vitamin E composites (hardness, adhesiveness, cohesiveness). In kind it is physicochemical. Particulars: probe compression 2 mm/s to 4 mm depth, 20±1° C. The method, then:
Texture Analysis. Texture analysis is a technique that has been widely utilized for the mechanical characterization of food and pharmaceutical products. The mechanical characteristics of the PCL-PVAc-PEG/Vitamin E composites were determined by using a TA-XT plus texture analyzer (Texture Technologies Corp and Stable Micro Systems, Ltd, Scarsdale, N.Y., USA) equipped with a 50 kg load cell and fitted with a 35 mm flat-faced stainless-steel cylindrical probe. Briefly, 10 g sample of each composite was placed in a 25 mL jacketed reaction beaker. Before analysis, air bubbles were removed from the samples by maintaining the reaction beaker at 80° C. for approximately 30 minutes. Samples were then allowed to equilibrate to room temperature for 24 h. After equilibration, samples were tested for their texture properties by compressing the probe into the surface of each sample at a rate of 2 mm/s to a depth of 4 mm, after which the probe was retracted at a rate of 2 mm/s. Composite Hardness, adhesiveness, and cohesiveness were then estimated from the generated force-time plots. At least three replicate analyses were carried out for each composite using a freshly prepared sample. Data collection and calculation were determined by the Texture Exponent 6.1.7.0 software package.
Texture Analysis. Texture profile analysis (TPA) of the PCL-PVAc-PEG/Vitamin E composites was carried out to study their compressional flow properties. It provided valuable information about the impact of PCL-PVAc-PEG load on the hardness, adhesiveness, and cohesiveness of the composites (FIG. 9). These characteristics quantify sample deformation under compression. Hardness describes the stress/work required to remove the sample from the container and to subsequently apply it to the site of application. It is defined as the force required to acquire a given deformation which is the same as the maximum peak force during compression. Hardness should be low in order to allow the material to be easily removed from the container. […]

The conditions of series [3]: 24° C.; cited from earlier work.

Molecules are shown by their SMILES.

With `Cc1c(C)c2c(c(C)c1O)CCC(C)(CCCC(C)CCCC(C)CCCC(C)C)O2` (racemic) [pure vitamin E, DL-α-Tocopherol], the Viscosity in series [1] is given as 5.9 Pa·s. In series [2], the Adhesiveness amounted to 0.01 kg·s, the Cohesiveness was 0.02 kg·s and the Hardness amounted to 0.021 kg. Also, the reported viscosity in series [3] is on record as 2480 centipoise.
